The values that follow come from patent US20190315771A1, “NOVEL 2-ACYLAMINOTHIAZOLE DERIVATIVE AND PREPARATION METHOD THEREFOR AND USE THEREOF” (SICHUAN KELUN-BIOTECH BIOPHARMACEUTICAL CO., LTD., priority 2016, published 2019).

pEC50, pIC50: −log10 of the molar value.

In series [1] the target is T1, human TPOR (Homo sapiens, UniProt P40238).
T1 construct: expressed in transfected cells; host or cells: mouse BAF3 cells
T1 sequence (P40238 26-635): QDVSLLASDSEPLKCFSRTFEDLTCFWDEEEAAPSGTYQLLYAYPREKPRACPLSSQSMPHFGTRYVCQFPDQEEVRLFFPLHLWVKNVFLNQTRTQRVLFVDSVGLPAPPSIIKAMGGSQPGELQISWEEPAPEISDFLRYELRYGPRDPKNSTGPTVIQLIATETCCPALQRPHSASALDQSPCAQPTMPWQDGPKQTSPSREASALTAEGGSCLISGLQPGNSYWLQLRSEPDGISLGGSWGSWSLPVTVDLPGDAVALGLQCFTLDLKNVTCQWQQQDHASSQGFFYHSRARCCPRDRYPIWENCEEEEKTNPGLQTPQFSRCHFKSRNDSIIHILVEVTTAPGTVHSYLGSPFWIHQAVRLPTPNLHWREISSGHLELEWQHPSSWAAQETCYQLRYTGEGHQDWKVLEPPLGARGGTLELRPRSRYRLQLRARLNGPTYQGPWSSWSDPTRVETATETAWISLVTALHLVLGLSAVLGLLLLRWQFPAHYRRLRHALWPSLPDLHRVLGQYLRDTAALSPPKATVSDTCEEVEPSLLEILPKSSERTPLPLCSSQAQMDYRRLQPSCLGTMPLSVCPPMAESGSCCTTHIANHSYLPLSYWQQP
Nature of the series: Proliferation of BAF3/TPOR cells (MTS method, OD490). Particulars: BAF3 cells stably expressing human TPOR, cultured with compound 24 h. Format: cell-based, mouse. From the text: The TPO mimetic compound was synthesized in vitro, and the compound acted on the TPO receptor (TPOR) on the cell to stimulate cell proliferation and differentiation. The OD490 value was detected by the MTS method, and the more the number of cells, the larger the OD value, thereby detecting the response of the compound to cell proliferation and differentiation. The agonist concentration at which the increased signal arrived at the highest level was Emax, and the concentration of the compound at which the increased signal arrived at 50% of the signal of Emax was EC50. The activity of the compound was determinable by EC50, and the smaller the EC50, the higher the activity of the compound.
Mouse […] BAF3 stably expressing human TPOR were cultured in 1640 medium containing 10% FBS. On the day of the assay, the cells were counted and seeded in a 96-well plate at 1×10^4 cells/50 μL. 50 μL of different concentrations of the tested compound were added to the wells to a final concentration of 10000 nM, 3000 nM, 300 nM, 30 nM, 3 nM, 0.3 nM, 0.03 nM, 0.003 nM, 0.0003 nM, and the final concentration of DMSO was 1%. After the cells were cultured with the compound for 24 h at 37° C. in a 5% CO2 incubator, 10 μL of detection reagent (Promega, Cell Titer 96® Aqueous One Solution) was added. After mixing, the resulting mixture was incubated for 3 h in the incubator. The OD 490 was detected using a multifunctional automatic microplate reader, and the EC50 was fitted using GraphPad Prism 5 software.

For series [2], the target named is hERG potassium channel (Homo sapiens, UniProt Q12809). Nature of the series: hERG test, electrophysiological manual patch clamp. The following applies: for hERG potassium channel inhibition (judgement in words): conclusion from Table 2; for pIC50: manual patch clamp, IC50 >10 μM judged as no inhibitory effect on hERG. Format: cell-based. From the text:
In cardiomyocytes, the potassium channel encoded by hERG (human Ether-a-go-go Related Gene) mediated the delayed rectifier potassium current (lKr). The IKr inhibition was the most important mechanism for drug-induced QT prolongation and induction of arrhythmia.
The electrophysiological manual patch clamp was used to detect the effect of the tested compound on the hERG potassium channel.
On the technique in general: Block of hERG is tested as a sign of cardiac risk.

What is called pEC50 is −log10 of the EC50, conventionally taken in molar units. Usually pIC50 stands for the negative decadic logarithm of the IC50, by convention in mol/L.

Sequence of hERG potassium channel (Q12809 whole entry): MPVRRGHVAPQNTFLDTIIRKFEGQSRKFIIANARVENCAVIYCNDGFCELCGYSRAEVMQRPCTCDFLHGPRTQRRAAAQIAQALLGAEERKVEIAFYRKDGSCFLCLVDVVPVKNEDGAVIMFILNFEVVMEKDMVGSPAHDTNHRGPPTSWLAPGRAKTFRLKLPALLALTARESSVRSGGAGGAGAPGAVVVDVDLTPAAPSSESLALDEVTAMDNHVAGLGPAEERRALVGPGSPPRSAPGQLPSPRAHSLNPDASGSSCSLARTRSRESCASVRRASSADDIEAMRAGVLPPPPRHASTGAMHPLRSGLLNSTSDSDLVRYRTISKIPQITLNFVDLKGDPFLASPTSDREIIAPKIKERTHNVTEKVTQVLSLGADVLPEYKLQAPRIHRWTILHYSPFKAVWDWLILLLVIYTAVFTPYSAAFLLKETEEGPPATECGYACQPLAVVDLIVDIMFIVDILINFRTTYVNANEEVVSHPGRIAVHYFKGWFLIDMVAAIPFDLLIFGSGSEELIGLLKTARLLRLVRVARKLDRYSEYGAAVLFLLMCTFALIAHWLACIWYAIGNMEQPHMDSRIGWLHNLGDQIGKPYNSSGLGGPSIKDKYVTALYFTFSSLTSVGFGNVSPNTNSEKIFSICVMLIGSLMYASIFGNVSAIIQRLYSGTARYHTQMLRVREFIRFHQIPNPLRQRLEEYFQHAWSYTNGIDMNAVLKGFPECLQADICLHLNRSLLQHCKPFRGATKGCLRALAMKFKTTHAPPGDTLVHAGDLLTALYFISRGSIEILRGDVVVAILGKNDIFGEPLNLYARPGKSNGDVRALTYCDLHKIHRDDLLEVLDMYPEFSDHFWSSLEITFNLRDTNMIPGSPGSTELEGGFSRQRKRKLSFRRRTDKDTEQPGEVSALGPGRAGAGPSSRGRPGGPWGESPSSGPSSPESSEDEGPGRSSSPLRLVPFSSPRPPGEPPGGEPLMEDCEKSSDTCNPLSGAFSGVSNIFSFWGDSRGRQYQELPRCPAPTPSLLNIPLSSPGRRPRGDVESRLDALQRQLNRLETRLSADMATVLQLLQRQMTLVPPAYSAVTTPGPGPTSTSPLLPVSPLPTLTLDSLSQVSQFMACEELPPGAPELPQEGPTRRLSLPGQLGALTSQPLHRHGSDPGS

Regarding `C/C(=C\c1c(Cl)cc(C(=O)Nc2nc(-c3cc(Cl)cs3)c(N3CC4CCN(C5CC(F)(F)C5)C4C3)s2)cc1Cl)C(=O)O` (centres unmarked) [Example 38, (E)-3-(4-((5-(1-(3,3-difluorocyclobutyl)-hexahydropyrrolo[3,4-b]pyrrol-5(1H)-yl)-4-(4-chlorothiophen-2-yl)-thiazol-2-yl)-carbamoyl)-2,6-dichlorophenyl)-2-methylacrylic acid], in series [1], the pEC50 is 9.37. Still for that read-out and setting: then `C/C(=C\c1c(Cl)cc(C(=O)Nc2nc(-c3cc(Cl)cs3)c(N3CC4CCN(C5CCCC5)C4C3)s2)cc1Cl)C(=O)O` (centres unmarked) [Example 40, (E)-3-(2,6-dichloro-4-((4-(4-chlorothiophen-2-yl)-5-(1-cyclopentyl-hexahydropyrrolo[3,4-b]pyrrol-5(1H)-yl)-thiazol-2-yl)-carbamoyl)-phenyl)-2-methylacrylic acid], with 10.15; and `C/C(=C\c1c(Cl)cc(C(=O)Nc2nc(-c3cc(Cl)cs3)c(N3CC4CCN(C5CCCCCC5)C4C3)s2)cc1Cl)C(=O)O` (centres unmarked) [Example 44, (E)-3-(4-((5-(1-cycloheptyl-hexahydropyrrolo[3,4-b]pyrrol-5(1H)-yl)-4-(4-chlorothiophen-2-yl)-thiazol-2-yl)-carbamoyl)-2,6-dichlorophenyl)-2-methylacrylic acid], with 9.89; and `C/C(=C\c1c(Cl)cc(C(=O)Nc2nc(-c3cc(Cl)cs3)c(N3CC4CCN(C5C[C@H]6CC[C@@H]5C6)C4C3)s2)cc1Cl)C(=O)O` (some centres unmarked) [Example 45, (E)-3-(4-((5-(1-(bicyclo[2.2.1]hept-2-yl)-hexahydropyrrolo[3,4-b]pyrrol-5(1H)-yl)-4-(4-chlorothiophen-2-yl)-thiazol-2-yl)-carbamoyl)-2,6-dichlorophenyl)-2-methylacrylic acid], with 9.23. On the same count and under the same terms, then `C/C(=C\c1c(Cl)cc(C(=O)Nc2nc(-c3cc(Cl)cs3)c(N3CC4CCN(C5[C@H]6C[C@@H]7C[C@@H](C[C@H]5C7)C6)C4C3)s2)cc1Cl)C(=O)O` (stereo partly drawn) [Example 46, (E)-3-(4-((5-(1-((1R,3R,5R,7R)-adamantan-2-yl)hexahydropyrrolo[3,4-b]pyrrol-5(1H)-yl)-4-(4-chlorothiophen-2-yl)thiazol-2-yl)carbamoyl)-2,6-dichlorophenyl)-2-methylacrylic acid], with 10.10; and `C/C(=C\c1c(Cl)cc(C(=O)Nc2nc(-c3cc(Cl)cs3)c(N3CCC4C(CCN4C4CCCCC4)C3)s2)cc1Cl)C(=O)O` (centres unmarked) [Example 48], with 9.22. Turning to `C/C(=C\c1c(Cl)cc(C(=O)Nc2nc(-c3cc(Cl)cs3)c(N3C[C@H]4CCN(C5[C@H]6C[C@@H]7C[C@@H](C[C@H]5C7)C6)[C@H]4C3)s2)cc1Cl)C(=O)O` (stereo partly drawn) [Example 51, (E)-3-(4-((5-((3aR,6aR)-1-((1R,3R,5R,7R)-adamantan-2-yl)hexahydropyrrolo[3,4-b]pyrrol-5(1H)-yl)-4-(4-chlorothiophen-2-yl)thiazol-2-yl)carbamoyl)-2,6-dichlorophenyl)-2-methylacrylic acid], the pEC50 in series [1] was 10.30. Also, in series [2], the “hERG potassium channel inhibition (judgement in words)” value is listed as “no hERG inhibition” and the pIC50 is under 4.52. Consider `C/C(=C\c1c(Cl)cc(C(=O)Nc2nc(-c3cc(Cl)cs3)c(N3C[C@@H]4CCN(C5[C@H]6C[C@@H]7C[C@@H](C[C@H]5C7)C6)[C@@H]4C3)s2)cc1Cl)C(=O)O` (stereo partly drawn) [Example 52, (E)-3-(4-((5-((3aS,6aS)-1-((1S,3S,5S,7S)-adamantan-2-yl)hexahydropyrrolo[3,4-b]pyrrol-5(1H)-yl)-4-(4-chlorothiophen-2-yl)thiazol-2-yl)carbamoyl)-2,6-dichlorophenyl)-2-methylacrylic acid], for which, in series [1], the pEC50 is 9.89. This compound also gave a pIC50 in series [2] of 5.10. Turning to `CCCCCCO[C@@H](C)c1cccc(-c2csc(NC(=O)c3cc(Cl)c(/C=C(\C)C(=O)O)c(Cl)c3)n2)c1OC` [Lusutrombopag, reference compound], in series [1], the pEC50 is 8.71. Moreover, in series [2], the “hERG potassium channel inhibition (judgement in words)” value is on record as “significant cardiac hERG potassium channel inhibition” and the negative-log IC50 (pIC50) is 5.63.
